Measured values: patent US20110251379A1, “COMPOUNDS USEFUL FOR TREATING NEURODEGENERATIVE DISORDERS” (Satori Pharmaceuticals, Inc., priority 2010, published 2011)
Read-outs that look alike come from different tables or passages of the source.

Key:
Format in all cases: cell-based
Aβ-42 = test: MSD Human (6E10) Ab 3-PLEX elisa, conditioned media of 2B7 cells: Aβ-42; conditions: for IC50: Aβ-42 (superscript c); for inhibition at 20 µM: Aβ-42, 20 μM
Outline: (§1)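 We dose confluent 2B7 cells for 5 hours at 37° C, keeping DMSO at 1%. Diluted media then incubates on antibody-coated plates either overnight at 4 degrees C or 2 hours at room temp.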

Aβ-38 = test: MSD Human (6E10) Ab 3-PLEX elisa, conditioned media of 2B7 cells: Aβ-38; conditions: for inhibition at 20 µM: Aβ-38, 20 μM
Outline: as §1

Aβ-40 = test: MSD Human (6E10) Ab 3-PLEX elisa, conditioned media of 2B7 cells: Aβ-40; conditions: for IC50: Aβ-40 (superscript b); for inhibition at 20 µM: Aβ-40, 20 μM
Outline: as §1

[1] = Homo sapiens, read-out: 50% reduction value
[2] = Homo sapiens, read-out: IC50 range
[3] = Homo sapiens, Aβ-38 (superscript a), read-out: 50% reduction value
[4] = Aβ-38 (superscript a), read-out: 50% reduction value
[5] = Homo sapiens, Aβ-38 (superscript a), read-out: IC50 range

In the case of `CNC(=O)O[C@H](C(C)C)C1C[C@@H](C)[C@H]2C(O1)[C@H](O)[C@@]1(C)C3CC[C@H]4C(C)(C)[C@@H](O[C@H]5CNCCO5)CC[C@@]45C[C@@]35CC[C@]21C` (stereo partly shown), the IC50 (Aβ-42; [1]) is reported as < 1000 nM, the IC50 (Aβ-42; [2]) is reported as < 1000 nM and the inhibition at 20 µM (Aβ-42; Homo sapiens) is reported as 25 to 75%. The IC50 (Aβ-38; [3]) was < 1000 nM, the IC50 (Aβ-40; [1]) was 1000 to 10000 nM and the IC50 (Aβ-40; [2]) was > 10000 nM. The inhibition at 20 µM (Aβ-40; Homo sapiens) was 25 to 75%.

With `C[C@@H]1CC(COC(=O)C2CCOCC2)OC2[C@H]1[C@@]1(C)CC[C@@]34C[C@@]35CC[C@H](O[C@H]3CN(C6COC6)CCO3)C(C)(C)[C@@H]5CCC4[C@]1(C)[C@H]2O` (stereo partly shown) the inhibition at 20 µM (Aβ-42; Homo sapiens) was 25 to 75%, the inhibition at 20 µM (Aβ-38; Homo sapiens) was 25 to 75% and the inhibition at 20 µM (Aβ-40; Homo sapiens) was 25 to 75%.

With `CC(C)CO[C@@H](C1C[C@@H](C)[C@H]2C(O1)[C@H](O)[C@@]1(C)C3CC[C@H]4C(C)(C)C(OC(=O)NC5CN(C=O)C5)CC[C@@]45C[C@@]35CC[C@]21C)C(C)(C)O` (stereo partly shown) the IC50 (Aβ-42; [1]) was < 1000 nM, the IC50 (Aβ-42; [2]) was 1000 to 10000 nM and the IC50 (Aβ-38; [3]) was 1000 to 10000 nM. For the same compound, the IC50 (Aβ-40; [1]) was 1000 to 10000 nM and the IC50 (Aβ-40; [2]) was 1000 to 10000 nM.

With `CC(C)CC(=O)OC(C1CC(C)C2C(O1)C(O)C1(C)C3CCC4C(C)(C)C(OC5CN(C6COC6)CCO5)CCC45CC35CCC21C)C(C)(C)O` (stereo not shown) the IC50 (Aβ-42; read-out: 50% reduction value) was 1000 to 10000 nM, the IC50 (Aβ-42; read-out: IC50 range) was 1000 to 10000 nM and the “IC50 range (nM)” value (Aβ-38; Aβ-38 (superscript a)) was “A- B”. It also gave an IC50 (Aβ-38; [4]) of 1000 to 10000 nM, an IC50 (Aβ-40; read-out: 50% reduction value) of 1000 to 10000 nM and an IC50 (Aβ-40; read-out: IC50 range) of 1000 to 10000 nM.

For `CNC(=O)O[C@H](C(C)C)C1C[C@@H](C)[C@H]2C(O1)[C@H](O)[C@@]1(C)C3CC[C@H]4C(C)(C)C(OC(=O)NC5CNC5)CC[C@@]45C[C@@]35CC[C@]21C` (stereo partly shown), the IC50 (Aβ-42; [1]) was < 1000 nM, the IC50 (Aβ-42; [2]) was < 1000 nM and the IC50 (Aβ-38; [3]) was < 1000 nM. The IC50 (Aβ-40; [1]) was 1000 to 10000 nM.

With `CC(=O)OC(C)(C)C1C[C@@H](C)[C@H]2C(O1)[C@H](O)[C@@]1(C)C3CC[C@H]4C(C)(C)C(OC(=O)N5CCOCC5)CC[C@@]45C[C@@]35CC[C@]21C` (stereo partly shown) the inhibition at 20 µM (Aβ-42; Homo sapiens) was < 25%, the inhibition at 20 µM (Aβ-38; Homo sapiens) was 25 to 75% and the inhibition at 20 µM (Aβ-40; Homo sapiens) was < 25%.

With `CC1CC(CO)OC2C1C1(C)CCC34CC35CCC(OC3OCC(O)C(O)C3O)C(C)(C)C5CCC4C1(C)C2O` (stereo not shown) [drawing 1203] the IC50 (Aβ-42; read-out: IC50 range) was > 10000 nM, the “% Inh. (range)” value (Aβ-38; Aβ-38, 100 μM) was “E^a (100 μM) E^b (100 μM) (% inhibition of 25-75%)” and the “% Inh. (range)” value (Aβ-40; Aβ-40, 100 μM) was “E^a (100 μM) E^b (100 μM) (% inhibition of 25-75%)”.

`CCC(=O)OC(C1CC(C)C2C(O1)C(O)C1(C)C3CCC4C(C)(C)C(OC5CN(C6COC6)CCO5)CCC45CC35CCC21C)C(C)(C)O` (stereo not shown) [drawing 1209] was tested, and the IC50 (Aβ-42; read-out: 50% reduction value) was < 1000 nM, the IC50 (Aβ-38; [4]) was < 1000 nM and the IC50 (Aβ-38; Aβ-38 (superscript a), read-out: IC50 range) was < 1000 nM. It also gave an IC50 (Aβ-40; read-out: 50% reduction value) of 1000 to 10000 nM and an IC50 (Aβ-40; read-out: IC50 range) of 1000 to 10000 nM.

In the case of `CC(=O)NCCC1C[C@@H](C)[C@H]2C(O1)[C@H](O)[C@@]1(C)C3CC[C@H]4C(C)(C)[C@@H](O)CC[C@@]45C[C@@]35CC[C@]21C` (stereo partly shown), the IC50 (Aβ-42; [1]) is reported as 1000 to 10000 nM, the inhibition at 20 µM (Aβ-38; Homo sapiens) is reported as 25 to 75% and the inhibition at 20 µM (Aβ-40; Homo sapiens) is reported as < 25%.

For `C[C@@H]1C[C@](C)(CO)OC2[C@H]1[C@@]1(C)CC[C@@]34C[C@@]35CC[C@H](O)C(C)(C)[C@@H]5CCC4[C@]1(C)[C@H]2O` (stereo partly shown), the inhibition at 20 µM (Aβ-42; Homo sapiens) was < 25%, the inhibition at 20 µM (Aβ-38; Homo sapiens) was 25 to 75% and the inhibition at 20 µM (Aβ-40; Homo sapiens) was < 25%.

In the case of `CCO[C@@H](C1C[C@@H](C)[C@H]2C(O1)[C@H](O)[C@@]1(C)C3CC[C@H]4C(C)(C)C(OC(=O)NC5CCNC5=O)CC[C@@]45C[C@@]35CC[C@]21C)C(C)(C)O` (stereo partly shown) [drawing 1290], the IC50 (Aβ-42; read-out: 50% reduction value) is reported as < 1000 nM, the IC50 (Aβ-42; read-out: IC50 range) is reported as < 1000 nM and the IC50 (Aβ-38; [4]) is reported as < 1000 nM. For the same compound, the IC50 (Aβ-38; [5]) was < 1000 nM, the IC50 (Aβ-40; read-out: 50% reduction value) was 1000 to 10000 nM and the IC50 (Aβ-40; read-out: IC50 range) was > 10000 nM.

`C[C@@H]1CC(CN(C)C(=O)N(C)C)OC2[C@H]1[C@@]1(C)CC[C@@]34C[C@@]35CC[C@H](O)C(C)(C)[C@@H]5CCC4[C@]1(C)[C@H]2O` (stereo partly shown) was tested, and the inhibition at 20 µM (Aβ-42; Homo sapiens) was 25 to 75%, the IC50 (Aβ-38; [3]) was 1000 to 10000 nM and the inhibition at 20 µM (Aβ-40; Homo sapiens) was 25 to 75%.

In the case of `CC(=O)O[C@@H]([C@H]1C[C@@H](C)[C@H]2[C@H](O1)C(=O)[C@@]1(C)[C@@H]3CC[C@H]4C(C)(C)[C@@H](O[C@H]5CN(CC(N)=O)CCO5)CC[C@@]45C[C@@]35CC[C@]21C)C(C)(C)O` [drawing 1202], the inhibition at 20 µM (Aβ-42; Homo sapiens) is reported as 25 to 75%, the IC50 (Aβ-38; [3]) is reported as < 1000 nM and the IC50 (Aβ-38; [5]) is reported as < 1000 nM. For the same compound, the IC50 (Aβ-40; [1]) was < 1000 nM.

For `CC(=O)OCC1C[C@@H](C)C2C(O1)[C@H](O)[C@@]1(C)[C@@H]3CC[C@H]4C(C)(C)[C@@H](O)CC[C@@]45C[C@@]35CC[C@]21C` (stereo partly shown) [drawing 1161], the inhibition at 20 µM (Aβ-42; Homo sapiens) was 25 to 75%, the inhibition at 20 µM (Aβ-38; Homo sapiens) was 25 to 75% and the inhibition at 20 µM (Aβ-40; Homo sapiens) was 25 to 75%.
